Experimental data published in patent publication US11000033B2, “Ketone or oxime compound, and herbicide” (NISSAN CHEMICAL CORPORATION, priority 2014, dated 2021).

What was measured:
Assay type in all cases: in vivo
[1] = test system: directly sowed rice plant; experiment: Test Example 3: effect on crop by foliage application, Wagner pot (symbol b); settings: application herbicide amount 320 g/ha; for b (directly sowed rice plant) effect on crop grade: Table 24
Method in brief: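 Wagner pot (1/10000 are), alluvial soil, submerged 0.1–0.5 cm; sown E. crus-galli var. crus-galli, L. chinensis, C. difformis, rice; greenhouse 25–30 °C.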

Chenopodium album = experiment: Test Example 5: herbicidal effect by foliage application, plastic box (symbol O); settings: 320 g/ha, 3 weeks after application
Method in brief: (§1)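 Post-emergence spray; diluvial soil (sterilized), ~1.5 cm seed cover; greenhouse 25–30° C; 14-day-old plants; water-diluted emulsion at predetermined dose; visual score at 3 wk post-treatment.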

Veronica persica = experiment: Test Example 5: herbicidal effect by foliage application, plastic box (symbol R); settings: 320 g/ha, 3 weeks after application
Method in brief: as §1

soybean = experiment: Test Example 5: effect on crop by foliage application, plastic box (symbol d); settings: 320 g/ha, 3 weeks after application
Method in brief: (§2)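 Foliage-application test plants come from spot sowing in sterilized diluvial soil under a soil layer of about 1.5 cm, grown at 25° C. to 30° C. in a greenhouse.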

Lolium multiflorum Lam. = experiment: Test Example 4: herbicidal effect by soil treatment (symbol K); settings: for K: Lolium multiflorum Lam., herbicidal effect grade: 320 g/ha; for Herbicidal effect grade, K: Lolium multiflorum Lam.: application herbicide amount 320 g/ha
Method in brief: (§3)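 Seeds were sown in sterilized diluvial soil, covered with about 1.5 cm of soil, and the soil surface was sprayed with a water-diluted emulsion of the compound at a predetermined rate. Plants grew in a greenhouse at 25° C. to 30° C.; effects were scored visually 3 weeks after application.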

Alopecurus myosuroides = experiment: Test Example 4: herbicidal effect by soil treatment (symbol J); settings: for J: Alopecurus myosuroides, herbicidal effect grade: 320 g/ha; for Herbicidal effect grade, J: Alopecurus myosuroides: application herbicide amount 320 g/ha
Method in brief: as §3

Apera spica-venti = experiment: Test Example 4: herbicidal effect by soil treatment (symbol L); settings: for L: Apera spica-venti, herbicidal effect grade: 320 g/ha; for Herbicidal effect grade, L: Apera spica-venti: application herbicide amount 320 g/ha
Method in brief: as §3

Abutilon theophrasti = experiment: Test Example 5: herbicidal effect by foliage application, plastic box (symbol M); settings: 320 g/ha, 3 weeks after application
Method in brief: as §1

Stellaria media = experiment: Test Example 4: herbicidal effect by soil treatment (symbol P); settings: for P: Stellaria media, herbicidal effect grade: 320 g/ha; for Herbicidal effect grade, P: Stellaria media: application herbicide amount 320 g/ha
Method in brief: as §3

Monochoria vaginalis = experiment: Test Example 1: herbicidal activity, application before weed generation in submerged conditions (symbol C); settings: application herbicide amount 320 g/ha
Method in brief: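 Weed control was rated three weeks after treatment on a 0–5 scale, from 5% or lower up to 90% or more. Pre-emergence water-surface application of diluted emulsion at a predetermined rate was made on the day of sowing, in flooded (4 cm water) pots containing rice seedlings, kept at 25–30 °C under glass.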

corn = experiment: Test Example 4: effect on crop by soil treatment (symbol c); settings: for c: corn, effect grade on crop: 320 g/ha; for Effect on crop grade, c: corn: application herbicide amount 320 g/ha
Method in brief: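 Sterilized diluvial soil, spot sowing, ~1.5 cm soil cover; greenhouse 25–30° C.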

[2] = test system: Echinochloa crus-galli var. crus-galli; experiment: Test Example 5: herbicidal effect by foliage application, plastic box (symbol H); settings: 320 g/ha, 3 weeks after application
Method in brief: as §1

Amaranthus retroflexus = experiment: Test Example 4: herbicidal effect by soil treatment (symbol N); settings: for N: Amaranthus retroflexus, herbicidal effect grade: 320 g/ha; for Herbicidal effect grade, N: Amaranthus retroflexus: application herbicide amount 320 g/ha
Method in brief: as §3

Setaria viridis = experiment: Test Example 5: herbicidal effect by foliage application, plastic box (symbol G); settings: 320 g/ha, 3 weeks after application
Method in brief: as §1

[3] = test system: Echinochloa crus-galli var. crus-galli; experiment: Test Example 3: herbicidal effect by foliage application, Wagner pot (symbol H); settings: application herbicide amount 320 g/ha; for H (Echinochloa crus-galli var. crus-galli) herbicidal effect grade: Table 24
Method in brief: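 In a shallow-flooded alluvial soil system held at 25–30 °C, plants including rice grew for 14 days and were then sprayed over the foliage with emulsion diluted to a fixed herbicide amount. Visual rating followed at 3 weeks.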

wheat = experiment: Test Example 5: effect on crop by foliage application, plastic box (symbol e); settings: 320 g/ha, 3 weeks after application
Method in brief: as §2

Structure (SMILES) | effect on crop b (directly sowed rice plant), grade 0-5 [1] | O: Chenopodium album, herbicidal effect (criteria 0-5) (Chenopodium album) | R: Veronica persica, herbicidal effect (criteria 0-5) (Veronica persica) | d: soybean, effect on crop (criteria 0-5) (soybean) | K: Lolium multiflorum Lam., herbicidal effect grade (Lolium multiflorum Lam.) | J: Alopecurus myosuroides, herbicidal effect grade (Alopecurus myosuroides) | L: Apera spica-venti, herbicidal effect grade (Apera spica-venti) | M: Abutilon theophrasti, herbicidal effect (criteria 0-5) (Abutilon theophrasti) | P: Stellaria media, herbicidal effect grade (Stellaria media) | Herbicidal effect grade, C: Monochoria vaginalis (Monochoria vaginalis) | c: corn, effect grade on crop (corn) | H: Echinochloa crus-galli var. crus-galli, herbicidal effect (criteria 0-5) [2] | N: Amaranthus retroflexus, herbicidal effect grade (Amaranthus retroflexus) | G: Setaria viridis, herbicidal effect (criteria 0-5) (Setaria viridis) | herbicidal effect on H (Echinochloa crus-galli var. crus-galli), grade 0-5 [3] | e: wheat, effect on crop (criteria 0-5) (wheat) | b (directly sowed rice plant) effect on crop grade [1] | O: Chenopodium album, herbicidal effect grade (Chenopodium album) | R: Veronica persica, herbicidal effect grade (Veronica persica) | d: soybean, effect on crop grade (soybean) | also measured
CON=C(C)CC1CC(OC(=O)COCc2ccccc2)=C(c2c(C)cc(C)cc2C)C1=O (stereo not shown) [1-094] | 5 (Herbicidal ratio of 90% or more (almost completely withered)) | 0 (Herbicidal ratio of 5% or lower (almost no effect)) | 3 (Herbicidal ratio of 40% or higher and lower than 70%) | 2 (Herbicidal ratio of 20% or higher and lower than 40%) | 5 (Herbicidal ratio of 90% or more (almost completely withered)) | 5 (Herbicidal ratio of 90% or more (almost completely withered)) | 5 (Herbicidal ratio of 90% or more (almost completely withered)) | 4 (Herbicidal ratio of 70% or higher and lower than 90%) | 0 (Herbicidal ratio of 5% or lower (almost no effect)) | 1 (Herbicidal ratio of 5% or higher and lower than 20%) | 4 (Herbicidal ratio of 70% or higher and lower than 90%) | 5 (Herbicidal ratio of 90% or more (almost completely withered)) | 4 (Herbicidal ratio of 70% or higher and lower than 90%) | 5 (Herbicidal ratio of 90% or more (almost completely withered)) | 5 (Herbicidal ratio of 90% or more (almost completely withered)) | 5 (Herbicidal ratio of 90% or more (almost completely withered)) | – | – | – | – | –
CC#CC(=O)OC1=C(c2c(C)cc(C)cc2C)C(=O)C(CC(C)=NOC)C1 (stereo not shown) [1-095] | 5 (Herbicidal ratio of 90% or more (almost completely withered)) | 0 (Herbicidal ratio of 5% or lower (almost no effect)) | 3 (Herbicidal ratio of 40% or higher and lower than 70%) | 2 (Herbicidal ratio of 20% or higher and lower than 40%) | 5 (Herbicidal ratio of 90% or more (almost completely withered)) | 5 (Herbicidal ratio of 90% or more (almost completely withered)) | 5 (Herbicidal ratio of 90% or more (almost completely withered)) | 4 (Herbicidal ratio of 70% or higher and lower than 90%) | 0 (Herbicidal ratio of 5% or lower (almost no effect)) | 2 (Herbicidal ratio of 20% or higher and lower than 40%) | 5 (Herbicidal ratio of 90% or more (almost completely withered)) | 5 (Herbicidal ratio of 90% or more (almost completely withered)) | 4 (Herbicidal ratio of 70% or higher and lower than 90%) | 5 (Herbicidal ratio of 90% or more (almost completely withered)) | 5 (Herbicidal ratio of 90% or more (almost completely withered)) | 5 (Herbicidal ratio of 90% or more (almost completely withered)) | – | – | – | – | –
CON=C(CC1CC(O)=C(c2c(C)cc(Br)cc2C)C1=O)C(C)C (stereo not shown) [9-001] | – | – | – | – | – | – | – | – | – | 0 (Herbicidal ratio of 5% or lower (almost no effect)) | – | – | – | – | – | – | 5 (Herbicidal ratio of 90% or more (almost completely withered)) | 0 (Herbicidal ratio of 5% or lower (almost no effect)) | 0 (Herbicidal ratio of 5% or lower (almost no effect)) | 0 (Herbicidal ratio of 5% or lower (almost no effect)) | Herbicidal effect grade, K: Lolium multiflorum Lam. (Lolium multiflorum Lam.): 5 (Herbicidal ratio of 90% or more (almost completely withered)); Herbicidal effect grade, J: Alopecurus myosuroides (Alopecurus myosuroides): 3 (Herbicidal ratio of 40% or higher and lower than 70%); Herbicidal effect grade, L: Apera spica-venti (Apera spica-venti): 4 (Herbicidal ratio of 70% or higher and lower than 90%); M: Abutilon theophrasti, herbicidal effect grade (Abutilon theophrasti): 0 (Herbicidal ratio of 5% or lower (almost no effect)); Herbicidal effect grade, P: Stellaria media (Stellaria media): 0 (Herbicidal ratio of 5% or lower (almost no effect)); Effect on crop grade, c: corn (corn): 0 (Herbicidal ratio of 5% or lower (almost no effect)); H: Echinochloa crus-galli var. crus-galli, herbicidal effect grade [2]: 5 (Herbicidal ratio of 90% or more (almost completely withered)); Herbicidal effect grade, N: Amaranthus retroflexus (Amaranthus retroflexus): 1 (Herbicidal ratio of 5% or higher and lower than 20%); G: Setaria viridis, herbicidal effect grade (Setaria viridis): 4 (Herbicidal ratio of 70% or higher and lower than 90%); H (Echinochloa crus-galli var. crus-galli) herbicidal effect grade [3]: 5 (Herbicidal ratio of 90% or more (almost completely withered)); e: wheat, effect on crop grade (wheat): 0 (Herbicidal ratio of 5% or lower (almost no effect))
CON=C(CC1CC(O)=C(c2c(C)cc(Br)cc2C)C1=O)C1CC1 (stereo not shown) [9-002] | – | – | – | – | – | – | – | – | – | 0 (Herbicidal ratio of 5% or lower (almost no effect)) | – | – | – | – | – | – | 5 (Herbicidal ratio of 90% or more (almost completely withered)) | 0 (Herbicidal ratio of 5% or lower (almost no effect)) | 1 (Herbicidal ratio of 5% or higher and lower than 20%) | 0 (Herbicidal ratio of 5% or lower (almost no effect)) | Herbicidal effect grade, K: Lolium multiflorum Lam. (Lolium multiflorum Lam.): 5 (Herbicidal ratio of 90% or more (almost completely withered)); Herbicidal effect grade, J: Alopecurus myosuroides (Alopecurus myosuroides): 5 (Herbicidal ratio of 90% or more (almost completely withered)); Herbicidal effect grade, L: Apera spica-venti (Apera spica-venti): 5 (Herbicidal ratio of 90% or more (almost completely withered)); M: Abutilon theophrasti, herbicidal effect grade (Abutilon theophrasti): 4 (Herbicidal ratio of 70% or higher and lower than 90%); Herbicidal effect grade, P: Stellaria media (Stellaria media): 0 (Herbicidal ratio of 5% or lower (almost no effect)); Effect on crop grade, c: corn (corn): 3 (Herbicidal ratio of 40% or higher and lower than 70%); H: Echinochloa crus-galli var. crus-galli, herbicidal effect grade [2]: 5 (Herbicidal ratio of 90% or more (almost completely withered)); Herbicidal effect grade, N: Amaranthus retroflexus (Amaranthus retroflexus): 0 (Herbicidal ratio of 5% or lower (almost no effect)); G: Setaria viridis, herbicidal effect grade (Setaria viridis): 5 (Herbicidal ratio of 90% or more (almost completely withered)); H (Echinochloa crus-galli var. crus-galli) herbicidal effect grade [3]: 5 (Herbicidal ratio of 90% or more (almost completely withered)); e: wheat, effect on crop grade (wheat): 3 (Herbicidal ratio of 40% or higher and lower than 70%)
